From US6355799B1, “Substituted benzene compounds, process for their preparation, and herbicidal and defoliant compositions containing them” (ISK Americas Incorporated, priority 1997, dated 2002)

Columns and labels:
Assay type in all cases: in vivo
[1] = system: field corn (Zea mays L., var. Dekalb 535, CORN); test: Pre-emerge test, crop safety; conditions: pre-emerge, 14 days after application, rating scale 0-100
Method in brief: (§1)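 Compounds in acetone were track-sprayed at 187 l/ha, 15–1000 g ai/ha, onto sandy loam pots. Pre-emerge seeds were sown one day before spraying, with surface watering afterwards. Post-emerge plants were at the 2–3 leaf stage and sprayed with 0.25% v/v non-ionic surfactant. Injury was rated 0–100 at 14 days.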

[2] = system: upland rice (Oryza sp., var. Tebonnet, RICE); test: Pre-emerge test, crop safety; conditions: pre-emerge, 14 days after application, rating scale 0-100
Method in brief: as §1

[3] = system: field corn (Zea mays L., var. Dekalb 535, CORN); test: Post-emerge test, crop safety; conditions: post-emerge, 14 days after application, rating scale 0-100
Method in brief: (§2)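 Fourteen days after spraying, crop and weed injury was graded visually from 0, no effect, to 100, every plant dead. Test substances were dissolved in acetone and applied at 15–1000 g ai/ha with a flat-fan nozzle. Application was either pre-emergence, one day after sowing, or post-emergence at the 2–3 leaf stage.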

[4] = system: upland rice (Oryza sp., var. Tebonnet, RICE); test: Post-emerge test, crop safety; conditions: post-emerge, 14 days after application, rating scale 0-100
Method in brief: as §2

[5] = system: redroot pigweed (Amaranthus retroflexus, AMARE); test: Pre-emerge test, greenhouse herbicide activity screening; conditions: pre-emerge, 14 days after application, rating scale 0-100
Method in brief: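 Sandy loam pots; pre-emerge: sown 1 d pre-spray, surface-watered after, then bottom-watered. Post-emerge: sown 8–21 d before, 2–3 leaf stage, + 0.25% v/v NIS, bottom-watered. Acetone, 187 l/ha track spray, 15–1000 g ai/ha. 0–100 injury score, day 14.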

[6] = system: ivyleaf morningglory (Ipomoea hederacea, IPOHE); test: Post-emerge test, greenhouse herbicide activity screening; conditions: post-emerge, 14 days after application, rating scale 0-100
Description: (§3) A standard greenhouse herbicide activity screening system was used to evaluate the herbicidal efficacy and crop safety of these test compounds. Seven broadleaf weed species including redroot pigweed (Amaranthus retroflexus, AMARE, velvetleaf (Abutilon theophrasti, ABUTH), sicklepod (Cassia obtusifolia, CASOB), ivyleaf morningglory (Ipomoea hederacea, IPOHE), lambsquarters (Chenopodium album, CHEAL), common ragweed (Ambrosia artemisizfolia L., AMBEL), and cocklebur (Xanthium strumarium, XANST) were used as test species. Four grass weed species including green foxtail (Setaria viridis, SETVI), barnyardgrass (Echinochloa crus-galli, ECHCG), johnsongrass (Sorghum halepense, SORHA), and large crabgrass (Digitaria sanguinalis, DIGSA) were also used. In addition, three crop species, field corn (Zea mays L., var. Dekalb 535, CORN), soybean (Glycine max L., var. Pella 86, SOY), and is upland rice (Oryza sp., var. Tebonnet, RICE) were included.
(§4) All plants were grown in 10 cm square plastic pots which were filled with a sandy loam soil mix. For pre-emerge tests, seeds were planted one day prior to application of the test compounds. For post-emerge tests, seeds were planted 8-21 days prior to the test to allow emergence and good foliage development prior to application of the test substances. At the time of the post-emerge application, plants of all species were usually at the 2-3 leaf stage of development.
(§5) All test compounds Were dissolved in acetone and applied to the test units in a volume of 187 l /ha. Test materials were applied at rates ranging from 15 g ai/ha to 1000 g ai/ha using a track sprayer equipped with a TJ8001E even flow flat fan spray nozzle. Plants were arranged on a shelf so that the top of the canopy (post-emerge) or top of the soil surface (pre-emerge) was 40-45 cm below the nozzle. Pressurized air was used to force the test solution through the nozzle as it was mechanically advanced (via electrically driven chain drive) over the top of all test plants/pots. This application simulates a typical commercial field herbicide application.
(§6) In the post-emerge test, a commercial non-ionic surfactant was also included (0.25% v/v) to enhance wetting of the leaf surfaces of target plants. Immediately after application, test units of the pre-emerge applications were watered at the soil surface to incorporate the test materials. Subsequently, these test units were bottom-watered. Post-emerge test units were always bottom-watered.
(§7) At 14 days after application of the test materials, phytotoxicity ratings were recorded. A rating scale of 0-100 was used as previously described in Research Methods in Weed Science, 2nd edition, B. Truelove, Ed., Southern Weed Science Society, Auburn University, Auburn, Ala. 1977. Briefly, “0” corresponds to no damage and “100” corresponds to complete death of all plants in the test unit. This scale was used both to determine efficacy against weed species and damage to crop species. Herbicide activity data for various compounds of this invention, which are shown by compound No. in Tables 1-8, are shown in Tables 11 and 12.

[7] = system: barnyardgrass (Echinochloa crus-galli, ECHCG); test: as above; conditions: post-emerge, 14 days after application, rating scale 0-100
Description: as §3, §4, §5, §6, §7

[8] = system: sicklepod (Cassia obtusifolia, CASOB); test: as above; conditions: post-emerge, 14 days after application, rating scale 0-100
Description: as §3, §4, §5, §6, §7

[9] = system: velvetleaf (Abutilon theophrasti, ABUTH); test: as above; conditions: post-emerge, 14 days after application, rating scale 0-100
Description: as §3, §4, §5, §6, §7

[10] = system: large crabgrass (Digitaria sanguinalis, DIGSA); test: as above; conditions: post-emerge, 14 days after application, rating scale 0-100
Description: as §3, §4, §5, §6, §7

[11] = system: green foxtail (Setaria viridis, SETVI); test: as above; conditions: post-emerge, 14 days after application, rating scale 0-100
Description: as §3, §4, §5, §6, §7

[12] = system: lambsquarters (Chenopodium album, CHEAL); test: as above; conditions: post-emerge, 14 days after application, rating scale 0-100
Description: as §3, §4, §5, §6, §7

[13] = system: redroot pigweed (Amaranthus retroflexus, AMARE); test: as above; conditions: post-emerge, 14 days after application
Description: as §3, §4, §5, §6, §7

[14] = system: ivyleaf morningglory (Ipomoea hederacea, IPOHE); test: Pre-emerge test, greenhouse herbicide activity screening; conditions: pre-emerge, 14 days after application, rating scale 0-100
Description: as §3, §4, §5, §6, §7

[15] = system: barnyardgrass (Echinochloa crus-galli, ECHCG); test: as above; conditions: pre-emerge, 14 days after application, rating scale 0-100
Description: as §3, §4, §5, §6, §7

[16] = system: sicklepod (Cassia obtusifolia, CASOB); test: as above; conditions: pre-emerge, 14 days after application, rating scale 0-100
Description: as §3, §4, §5, §6, §7

[17] = system: velvetleaf (Abutilon theophrasti, ABUTH); test: as above; conditions: pre-emerge, 14 days after application, rating scale 0-100
Description: as §3, §4, §5, §6, §7

[18] = system: large crabgrass (Digitaria sanguinalis, DIGSA); test: as above; conditions: pre-emerge, 14 days after application, rating scale 0-100
Description: as §3, §4, §5, §6, §7

[19] = system: green foxtail (Setaria viridis, SETVI); test: as above; conditions: pre-emerge, 14 days after application, rating scale 0-100
Description: as §3, §4, §5, §6, §7

[20] = system: lambsquarters (Chenopodium album, CHEAL); test: as above; conditions: pre-emerge, 14 days after application, rating scale 0-100
Description: as §3, §4, §5, §6, §7

SMILES: COc1c(Cl)cc(F)c(-n2c(=O)cc(C(F)(F)F)n(C)c2=O)c1NN=Cc1ccc2ccccc2c1 [15-22]
- phytotoxicity rating CORN ([1]; 63 g ai/ha): 25
- phytotoxicity rating CORN ([1]; 250 g ai/ha): 95
- phytotoxicity rating RICE ([2]; 63 g ai/ha): 30
- phytotoxicity rating RICE ([2]; 250 g ai/ha): 99
- Post-emerge Herbicidal Activity CORN (crop damage rating) ([3]; 63 g ai/ha): 30
- Post-emerge Herbicidal Activity CORN (crop damage rating) ([3]; 250 g ai/ha): 90
- Post-emerge Herbicidal Activity RICE (crop damage rating) ([4]; 63 g ai/ha): 50
- Post-emerge Herbicidal Activity RICE (crop damage rating) ([4]; 250 g ai/ha): 90
- phytotoxicity rating AMARE ([5]; 63 g ai/ha): 100
- phytotoxicity rating AMARE ([5]; 250 g ai/ha): 100
- Post-emerge Herbicidal Activity IPOHE (phytotoxicity rating) ([6]; 63 g ai/ha): 100
- Post-emerge Herbicidal Activity IPOHE (phytotoxicity rating) ([6]; 250 g ai/ha): 100
- Post-emerge Herbicidal Activity ECHCG (phytotoxicity rating) ([7]; 63 g ai/ha): 40
- Post-emerge Herbicidal Activity ECHCG (phytotoxicity rating) ([7]; 250 g ai/ha): 100
- Post-emerge Herbicidal Activity CASOB (phytotoxicity rating) ([8]; 63 g ai/ha): 70
- Post-emerge Herbicidal Activity CASOB (phytotoxicity rating) ([8]; 250 g ai/ha): 100
- Post-emerge Herbicidal Activity ABUTH (phytotoxicity rating) ([9]; 63 g ai/ha): 100
- Post-emerge Herbicidal Activity ABUTH (phytotoxicity rating) ([9]; 250 g ai/ha): 100
- Post-emerge Herbicidal Activity DIGSA (phytotoxicity rating) ([10]; 63 g ai/ha): 30
- Post-emerge Herbicidal Activity DIGSA (phytotoxicity rating) ([10]; 250 g ai/ha): 90
- Post-emerge Herbicidal Activity SETVI (phytotoxicity rating) ([11]; 63 g ai/ha): 40
- Post-emerge Herbicidal Activity SETVI (phytotoxicity rating) ([11]; 250 g ai/ha): 95
- Post-emerge Herbicidal Activity CHEAL (phytotoxicity rating) ([12]; 63 g ai/ha): 100
- Post-emerge Herbicidal Activity CHEAL (phytotoxicity rating) ([12]; 250 g ai/ha): 100
- Post-emerge Herbicidal Activity AMARE (phytotoxicity rating) ([13]; 63 g ai/ha, rating scale 0-100 (0 no damage, 100 complete death)): 100
- Post-emerge Herbicidal Activity AMARE (phytotoxicity rating) ([13]; 250 g ai/ha, rating scale 0-100): 100
- phytotoxicity rating IPOHE ([14]; 63 g ai/ha): 50
- phytotoxicity rating IPOHE ([14]; 250 g ai/ha): 100
- phytotoxicity rating ECHCG ([15]; 63 g ai/ha): 60
- phytotoxicity rating ECHCG ([15]; 250 g ai/ha): 100
- phytotoxicity rating CASOB ([16]; 63 g ai/ha): 100
- phytotoxicity rating CASOB ([16]; 250 g ai/ha): 100
- phytotoxicity rating ABUTH ([17]; 63 g ai/ha): 100
- phytotoxicity rating ABUTH ([17]; 250 g ai/ha): 100
- phytotoxicity rating DIGSA ([18]; 63 g ai/ha): 100
- phytotoxicity rating DIGSA ([18]; 250 g ai/ha): 100
- phytotoxicity rating SETVI ([19]; 63 g ai/ha): 90
- phytotoxicity rating SETVI ([19]; 250 g ai/ha): 100
- phytotoxicity rating CHEAL ([20]; 63 g ai/ha): 100
- phytotoxicity rating CHEAL ([20]; 250 g ai/ha): 100
